Results taken from patent publication US9764046B2, “Labeling composition for intraocular tissue, labeling method of intraocular tissue, and screening method” (CANON KABUSHIKI KAISHA, priority 2008, dated 2017).

How the values were obtained:
[1] = Excitation and fluorescence wavelengths by fluorescence spectrometer FL4500; assay type: physicochemical; conditions: in nm (unit assumed)
[2] = system: intraocular tissue (retinal tissue incl. photoreceptor cell layer, vitreous body) of Zebrafish 7-day-old embryo; assay: Staining of intraocular tissue of Zebrafish fry by exposure to staining liquid, ocular tissue section observed by confocal microscope; assay type: in vivo; conditions: Zebrafish 7 dpf fry, 1 μg/mL, 1 hour exposure, fixed ocular section
[3] = system: fundus (retina) of Zebrafish fry; assay: In vivo intraocular observation of the fundus of living Zebrafish fry by confocal microscope; conditions: 1 μg/mL, 1 hour exposure;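 note: +++ photoreceptor and inner retinal layers stained ++ mainly photoreceptor layer − none seen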
Experimental: In an arbitrary well of a 24-well multiplate, were put 1 mL of Staining Liquid 2 and a fry of Zebrafish, and the plate was left to stand for 1 hour. A process of removing Staining Liquid 2 in the well and replacing it by 1 mL of distilled water was then performed 3 times.
The fry was then put in a 0.7% agarose solution and placed on a slide glass to observe the fundus of the fry through a confocal microscope.

[4] = system: photoreceptor cell layer in tissue section of the Zebrafish eyeball; assay: Stained slide of frozen tissue section of Zebrafish eyeball, co-staining with anti-Zpr-1 or anti-Zpr-3 antibody
Excerpt: After an eyeball of a fry of Zebrafish 7-day-old embryo (7 dpf) was immobilized with a PBS solution of 4% paraformaldehyde (PFA), the solution was replaced by a PBS solution of 30% sucrose, and the eyeball was embedded in an OCT compound (product of Tissue-Tek Co.) and frozen with liquid nitrogen. The frozen sample was sliced into a 7-1 μm section by Cryostat (Tissue•Tek Cryo 3, manufactured by Sakura Finetek Japan Co., Ltd.) and extended on a MAS-coated slide glass (product of […] GLASS IND., LTD) to obtain a tissue section slide of the Zebrafish eyeball. The slide glass was treated with a blocking solution (Blocking One, product of Nakarai Co.) for 30 minutes at room temperature, and an anti-Zpr-1 antibody (which stains red and green cone cells) diluted with PBS was mounted as a primary antibody on the slide glass and treated for 12 hours at 4° C. The slide glass was then washed 3 times with PBST for 10 minutes, and a secondary antibody (Alexa 488-anti-mouse IgG antibody) and 1 μg/mL of Compound 5 were diluted with PBS and mounted on the slide glass for 1 hour at room temperature. The slide glass was washed 3 times with PBST for 10 minutes, Fluoromount G (product of Southem Biotechnology Co.) was mounted thereon, and a cover glass was placed thereon. The thus-obtained stained slide of the tissue section of the Zebrafish eye ball was observed through a confocal microscope.
A stained slide of a tissue section of a Zebrafish eye ball was prepared according to the same process as in Example 120 except that the primary antibody used in Example 120 was changed to an anti-Zpr-3 antibody (which stains rod cells), and observed through a confocal microscope.

retina of B10 mouse = assay: Staining of mouse intraocular tissue after administration to the abdominal cavity; assay type: in vivo; conditions: 3-month-old B10 mouse, 0.2 mL of 10 mg/mL supernatant to abdominal cavity, eyeball taken after 1 hour
Experimental: Staining compound 81 was added to an equimolar amount of a NaOH solution so as to give a concentration of 10 mg/mL, and the resultant mixture was centrifuged for 5 minutes at 14 krpm to obtain a supernatant. To an abdominal cavity of a 3-month-old B10 mouse, was administered 0.2 mL of this supernatant at one time. After 1 hour, the thus-treated animal was sacrificed under anesthesia by diethyl ether, and an eyeball thereof was taken out. The eyeball taken was embedded in an OCT compound and frozen in isopentane chilled with liquid nitrogen. This eyeball was sliced into a thickness of about 5 μm in a cryostat chilled to −20° C., and this slice was placed on a slide glass and dried to prepare a section of an ocular tissue. The thus-prepared ocular tissue section was observed through a confocal microscope (Pascal Exciter, manufactured by Zeiss Co.).

[5] = aqueous solution: 10 mg/mL DMSO solution diluted to 1/500 with purified water (Examples 1 to 94)
[6] = Comparative Examples, solvent not stated

Row | Compound | λem (fluorescence wavelength) [1, 5] | λex (excitation wavelength) [1, 5] | Staining ability [2] | Result of observation (staining ability, in vivo fundus) [3] | also measured
1 | CC1(C)CCN2CCC(C)(C)c3c2c1cc1cc(-c2nc4ccccc4s2)c(=O)oc31 [Compound 8] | 592 | 477 | ++ | +++ | 
2 | CCN(CC)c1ccc2cc(-c3nc4ccc(C)cc4o3)c(=O)oc2c1 [Compound 13] | 504 | 472 | +++ | +++ | 
3 | CC1(C)C(/C=C/C=C/C=C/C=C2\N(CCCCS(=O)(=O)O)c3ccc4ccccc4c3C2(C)C)=[N+](CCCCS(=O)(=O)[O-])c2ccc3ccccc3c21 [ICG, indocyanine green, reference compound] |  |  | − | − | λem (fluorescence wavelength) [1, 6]: 811; λex (excitation wavelength) [1, 6]: 784
4 | O=C1OC2(c3ccc(O)cc3Oc3cc(O)ccc32)c2ccccc21 [Fluorescein, fluorescein, reference compound] |  |  | − | − | 
5 | CCN(CC)c1ccc2cc3c(oc2c1)c(C#N)c(=N)n1c2ccccc2nc31 [Compound 5] | 577 | 556 | +++ | +++ | Overlap of stained images with anti-Zpr-1 antibody (red and green cone cells) in the photoreceptor cell layer ([4]; Example 120, 1 μg/mL on frozen section): did not overlap; Overlap of stained images with anti-Zpr-3 antibody (rod cells) in the photoreceptor cell layer ([4]; Example 121, 1 μg/mL on frozen section): partially overlapped; Selectivity of staining within the photoreceptor cell layer ([4]; Examples 120 and 121): selectively stains a part of the cell types in the photoreceptor cell layer or of the cell bodies existing in the photoreceptor cell layer; Staining of photoreceptor cell layer and of red and green cone cells ([4]; conclusion from Example 120): has staining ability to the photoreceptor cell layer but does not stain the red and green cone cells in the photoreceptor cell layer; Cell types stained in the photoreceptor cell layer ([4]; conclusion from Example 121): has stained the rod cells and at least one kind of cell type of blue or ultraviolet cone cells
6 | CCCN(CCC)c1ccc2cc(-c3nc4ccccc4[nH]3)c(=O)oc2c1 [Compound 12] | 509 | 463 | ++ | ++ | 
7 | CCN(CC)c1ccc2cc(-c3nc4cc(Cl)ccc4o3)c(=O)oc2c1 [Compound 11] | 476 | 422 | +++ | +++ | 
8 | CCN(CC)c1ccc2cc(-c3nc4ccccc4[nH]3)c(=O)oc2c1 [Compound 9] | 514 | 464 | ++ | ++ | 
9 | O=C(O)CCN1C(=O)/C(=C\c2ccc3c(c2)C2CCCC2N3c2ccccc2)SC1=S (stereo not shown) [Compound 48] | 619 | 541 | ++ | ++ | 
10 | CSc1ccc(N2c3ccc(/C=C4/SC(=S)N(CC(=O)O)C4=O)cc3C3CCCC32)cc1 (stereo not shown) [Compound 66] | 636 | 527 | +++ | ++ | 
11 | COc1ccc2cc(N3c4ccc(/C=C5\SC(=S)N(CC(=O)O)C5=O)cc4[C@@H]4CCC[C@@H]43)ccc2c1 [Compound 36] | 661 | 566 | +++ | ++ | 
12 | CCN1c2ccc(/C=C3/SC(=S)N(CCC(=O)O)C3=O)cc2C2CCCC21 (stereo not shown) [Compound 81] | 604 | 576 | ++ | +++ | Staining ability to the retina (retina of B10 mouse): has staining ability to the retina
13 | COc1ccc(N2c3ccc(/C=C4/SC(=S)N(CCC(=O)O)C4=O)cc3C3CCCC32)cc1 (stereo not shown) [Compound 44] | 651 | 564 | ++ |  | 
14 | CCN1C(=S)S/C(=c2/s/c(=C/c3ccc4c(c3)C3CCCC3N4c3ccc(C=C(c4ccccc4)c4ccccc4)cc3)c(=O)n2CC(=O)O)C1=S (stereo not shown) [Compound 79] | 702 | 567 | ++ |  | 
15 | CCN(CC)c1ccc2cc3c(oc2c1)c(C#N)c(=O)n1c2ccccc2nc31 [Compound 6] | 576 | 555 | ++ | ++ | 
16 | CCN1/C(=C\C=C\C2=[N+](CC)c3ccccc3C23CCCCC3)C2(CCCCC2)c2ccccc21.[I-] [Compound 15] | 569 | 496 | +++ |  | 
17 | CCN(CC)c1ccc2cc(-c3nc4ccccc4s3)c(=O)oc2c1 [Compound 7] | 555 | 469 | ++ | +++ | 
18 | O=C(O)CC[n+]1c(/C=C/c2ccc3c(c2)C2CCCC2N3c2ccc(C=C(c3ccccc3)c3ccccc3)cc2)sc2ccccc21.[I-] (stereo not shown) [Compound 78] | 726 | 598 | ++ |  | Stained site [2]: 1
